Experimental data reported in publication PMC6719955, “HPLC-ESI-qTOF-MS/MS Characterization, Antioxidant Activities and Inhibitory Ability of Digestive Enzymes with Molecular Docking Analysis of Various Parts of Raspberry (Rubus ideaus L.)” (Antioxidants, 2019).
Read-outs that look alike come from different tables or passages of the source.

Tests used:
[1] = parameters: method as in Malinda et al. (2017) [34]; details: ref Malinda et al. (2017) [34]; cited from earlier work
α-glucosidase [2] = details: cited from earlier work
α-glucosidase [3] = test: α-Glucosidase inhibition activity assay (p-NPG); type: biochemical, Saccharomyces cerevisiae; details: 1 U/mL enzyme, pH 6.8, 37 °C
Excerpt: (§1) The Folin–Ciocalteu phenol reagent and chemicals used for the antioxidant activity assay were purchased from Aladdin Industrial Corporation (Shanghai, China). Phenolic standards, trolox, p-Nitrophenyl-α-D-glucopyranoside (p-NPG, > 99.8%), porcine pancreatic α-amylase (13 U/mg), and α-glucosidase (≥ 58 U/mg solid) from Saccharomyces cerevisiae were all purchased from Sigma-Aldrich (St. Louis, MO, USA). Analytical-grade materials were purchased from Guangzhou Reagent Co. (Guangzhou, China). Formic acid and acetonitrile used for the HPLC analysis were of chromatography grade. Water was purified by the Milli-Q (Millipore, MA, USA) system and filtered through membranes with a pore size of 0.22 μm before use.
The inhibitory activity of α-glucosidase was performed as the previous reported method with modifications. Briefly, 100 μL of the extracts’ dilutions and 100 μL of 1 U/mL α-glucosidase in 0.1 M phosphate buffer solution (pH 6.8) was mixed and pre-incubated at 37 °C for 10 min. Then, 100 μL of 5 mM p-NPG solution was added, and the reaction solution was incubated for another 20 min. The reaction was terminated by adding 500 μL of 0.2 M Na2CO3 solution. The absorbance at 405 nm was recorded. […] The inhibitory potency (%) was calculated by Equation (3). (3) α-Glucosidase inhibitory potency (%) = [1−ΔAs/ΔAc]×100 where ΔAs = Aextract+enzyme − Aextract, ΔAc = Abuffer+enzyme − Abuffer.

[4] = molecular target: T1, porcine pancreatic α-amylase (Sus scrofa, UniProt P00690); test: α-Amylase inhibition activity assay (starch/DNS); type: biochemical; details: 0.5 mg/mL enzyme, pH 6.8, 37 °C
T1 construct: purchased Sigma-Aldrich
T1 sequence (P00690 16-511): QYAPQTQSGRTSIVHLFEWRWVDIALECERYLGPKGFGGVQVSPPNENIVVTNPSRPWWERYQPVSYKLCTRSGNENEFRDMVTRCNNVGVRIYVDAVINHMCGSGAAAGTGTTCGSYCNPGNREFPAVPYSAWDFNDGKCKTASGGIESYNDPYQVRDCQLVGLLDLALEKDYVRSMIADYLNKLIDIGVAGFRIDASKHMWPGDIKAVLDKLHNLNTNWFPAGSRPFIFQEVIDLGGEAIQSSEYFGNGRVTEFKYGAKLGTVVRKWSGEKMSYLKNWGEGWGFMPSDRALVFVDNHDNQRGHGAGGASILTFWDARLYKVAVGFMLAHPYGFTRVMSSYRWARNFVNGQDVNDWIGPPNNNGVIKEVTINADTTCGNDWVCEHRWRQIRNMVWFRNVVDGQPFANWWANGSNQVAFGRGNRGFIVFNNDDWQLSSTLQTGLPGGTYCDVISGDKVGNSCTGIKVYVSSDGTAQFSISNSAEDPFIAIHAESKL
Excerpt: as §1, with “Phenolic standards, trolox, p-Nitrophenyl-α-D-glucopyranoside (p-NPG, > 99.8%), porcine pancreatic α-amylase (13 U/mg), and α-glucosidase (≥ 58 U/mg solid) from Saccharomyces cerevisiae were all purchased from Sigma-Aldrich (St. Louis, MO, USA).” left out

[5] = Hydroxyl (OH^−) radical scavenging activity assay; details: extracts made with 50% methanol
Description: The scavenging activity of OH[…] radicals was measured based on the method described by Liu et al., 2017 [19]. The reaction mixture included 100 μL of the extracts’ dilutions, 100 μL of 6 mM […] solution, and 100 μL of 2.4 mM H2O2. After 10 min of incubation at 25°C, the mixture was incubated with 100 μL of 6 mM salicylic acid at 25 °C for 30 min, then the absorbance at 510 nm was measured. A Trolox or Vc solution (5–100 μg/mL) served as the positive control.

[6] = DPPH radical scavenging activity assay; details: extracts made with 50% methanol
Description: DPPH assay was measured based on the method described earlier. The absorbance at 517 nm was recorded by a microplate reader (SpectraMax M5 Molecular Device, CA, USA). Trolox or Vc solution (5–100 μg/mL) were served as positive controls. […] (1) DPPH radical scavenging activity (%) = (1−As−Ab/Ac)×100 where As = the absorbance of the sample extracts with DPPH solution, Ab = the absorbance of the sample extracts without DPPH solution, Ac = the absorbance of DPPH solution.

[7] = ABTS cation radical scavenging activity assay; details: extracts made with 50% methanol
Description: ABTS assay was determined according to the method of Wang et al. (2017). The absorbance at […] was recorded by the microplate reader. Trolox or Vc solution (5–100 μg/mL) was served as positive controls. The scavenging activity (%) was calculated by Equation (2). (2) ABTS^+ radical scavenging activity (%) = (1−As−Ab/Ac)×100 where As = the absorbance of the extracts with ABTS^+ solution, Ab = the absorbance of the extracts without ABTS^+ solutionl, Ac = the absorbance of ABTS^+ solution.

[8] = constituents in raspberry, ref Zhang et al. (2010) [39]

Row | α-glucosidase inhibition IC50 (α-glucosidase [3]) | OH^− free radical scavenging IC50 [5] | DPPH radical scavenging IC50 [6] | SMILES | DPPH radical scavenging activity IC50 [1] | α-glucosidase inhibitory capacity (α-glucosidase [2]; [8]) | further results
1 | 590.34 ± 15.71 µg/mL |  |  | O=C(O)c1cc(O)c(O)c(O)c1 [GA, Gallic acid] | 2.24 µg/mL | strong | 
2 |  | 33.91 ± 1.82 µg/mL | 39.90 ± 0.67 µg/mL | Cc1c(C)c2c(c(C)c1O)CCC(C)(C(=O)O)O2 (stereo not drawn) [Trolox] |  |  | ABTS^+ free radical scavenging IC50 [7]: 41.50 ± 1.97 µg/mL
3 |  | 19.83 ± 0.37 µg/mL | 16.80 ± 1.31 µg/mL | O=C1O[C@H]([C@@H](O)CO)C(O)=C1O [Vc, ascorbic acid] |  |  | 

More lines, now with the values behind:

Row | SMILES | α-glucosidase inhibition IC50 (α-glucosidase [3]) | OH^− free radical scavenging IC50 [5] | DPPH radical scavenging IC50 [6] | DPPH radical scavenging activity IC50 [1] | α-glucosidase inhibitory capacity (α-glucosidase [2]; [8]) | further results
4 | O=c1oc2c(O)c(O)cc3c(=O)oc4c(O)c(O)cc1c4c23 [EA, Ellagic acid] | 976.32 ± 41.72 µg/mL |  |  | 4.80 µg/mL | weakest | 
5 | Oc1cc(O)c2c(c1)O[C@H](c1ccc(O)c(O)c1)[C@@H](O)[C@@H]2c1c(O)cc(O)c2c1O[C@H](c1ccc(O)c(O)c1)[C@@H](O)[C@@H]2c1c(O)cc(O)c2c1O[C@H](c1ccc(O)c(O)c1)[C@@H](O)C2 [PC, Procyanidin C3] | 93.37 ± 5.79 µg/mL |  |  |  |  | α-amylase inhibition IC50 [4]: 92.31 ± 3.51 µg/mL; α-glucosidase inhibitory capacity (α-glucosidase [2]; ref Wang et al. (2018) [38]): strong
6 | C[C@@H]1O[C@@H](OC[C@H]2O[C@@H](Oc3c(-c4ccc(O)c(O)c4)oc4cc(O)cc(O)c4c3=O)[C@H](O)[C@@H](O)[C@@H]2O)[C@H](O)[C@H](O)[C@H]1O [rutin, Rutin] |  |  |  |  | strong | 
